Patent US8927771B2, “Pharmaceutically acceptable cocrystals of N-[2-(7-methoxyl-1-naphtyl)ethyl]acetamide and methods of their preparation” (Zentiva k.s., priority 2011, dated 2015)

Legend:
[1] = BCS classification system; cited from earlier work
[2] = suspensions in organic solvents (alcohols, ketones, esters, alkanes, aromatic hydrocarbons), 30° C., one week, Raman spectroscopy
Protocol: Samples of the agomelatine citric acid cocrystal were maturated as suspensions in a library of organic solvents including alcohols, ketones, esters, alkanes and aromatic hydrocarbons at a temperature of 30° C. for one week.

[3] = 90° C. in a glass capillary for 7 hours, X-ray powder diffraction
Protocol: A sample of the agomelatine citric acid cocrystal was heated to 90° C. in a glass capillary for 7 hours.

[4] = DVS, range of 20-80% RH
From the text: A sample of the agomelatine citric acid cocrystal was subjected to DVS analysis ([…] Vapor Sorption). The sample was placed on a microbalance in a controlled humidity chamber and subjected to two cycles of increasing humidity (red and green lines) and two cycles of decreasing humidity (blue and purple lines) as shown in FIG. 4.

[5] = slurried in water, Raman spectra
Protocol: A sample of the agomelatine citric acid cocrystal was slurried in water and the solid analysed by Raman spectroscopy at 20 minute intervals.

Structure (SMILES): COc1ccc2cccc(CCNC(C)=O)c2c1 [N-[2-(7-Methoxy-1-naphthyl)ethyl]acetamide]
- BCS solubility class [1]: high solubility drug

Structure (SMILES): COc1ccc2cccc(CCNC(C)=O)c2c1.O=C(O)CC(O)(CC(=O)O)C(=O)O [agomelatine citric acid cocrystal, N-[2-(7-methoxy-1-naphthyl)ethyl]acetamide Citric Acid Cocrystal]
- stability of the crystalline phase in suspension [2]: generally stable
- crystalline phase after heating [3]: pure crystalline phase consistent with the agomelatine citric acid cocrystal
- hygroscopicity [4]: not particularly hygroscopic
- change in mass ([4]; two cycles of increasing and two of decreasing humidity): less than 0.2%
- state of the solid in water slurry after 20 minutes ([5]; after 20 minutes): near to complete dissolution of the citric acid
- state of the solid in water slurry after 40 minutes ([5]; after 40 minutes): no further changes in the spectrum were observed
